Results on one compound are retold here after patent US8772540B2, “Thermal responsive molecule” (Kyushu University, National University Corporation, priority 2009, dated 2014).

Data set [1] in a line: Fluorescent spectrum: incorporation of hydrophobic environmental probe ANS-Na into hydrogel. It counts as physicochemical. The following applies: 10 μM ANS-Na, 1 mM Eg3C8U aqueous solution. The method, then: Using ANS-Na (8-anilino-1-naphthalene sulfonic acid sodium salt) known as a hydrophobic environmental probe, the hydrogel was tested for incorporation of a fluorescent substance thereinto.

Data set [2] is described as follows: Confirmation of formation of hydrogel (gelling when heated in water). It counts as physicochemical. The method, then: Two ml of deionized water was added to 1 mg of the compound (8), which was dissolved by ultrasonication with cooling in an ice bath. With gradually heating up to room temperature, this was statically left as such for 30 minutes.

Take `COCCOCCOCCOCCCCCCNC(=O)Nc1cc(NC(=O)NCCCCCCOCCOCCOCCOC)cc(NC(=O)NCCCCCCOCCOCCOCCOC)c1` [compound (8), 1,1′,1″-(benzene-1,3,5-triyl)tris{3-(2,5,8,11-tetraoxaheptadecan-17-yl)urea}]: in data set [1], the “fluorescence of ANS-Na in hydrogel versus aqueous solution” value was “fluorescent intensity increased in the hydrogel and was shifted to the short wavelength side”. The hydrogel formation entry in data set [2] (1 mg in 2 ml deionized water, transparent solution at 0° C., heated up to room temperature, left 30 minutes) is “formed a hydrogel”. The compound also returned a lowermost gelling concentration in data set [2] (in water, gels when heated) of 0.05 wt. %.
